Experimental data from ChEMBL document CHEMBL5303304, “EUbOPEN Chemogenomics Library - IncuCyte” (2023).

How the values were obtained:
Type in all cases: toxicity, cell-based
HEK-293T = experiment: Incucyte cell viability with HEK293T; conditions: human, 10 µM, compound concentration 10 uM
Fibroblast = experiment: Incucyte cell viability with human fibroblast; conditions: 10 µM, compound concentration 10 uM
U2OS = experiment: Incucyte cell viability with U2OS; conditions: human, 10 µM, compound concentration 10 uM
Further: unitless GR value; below 1 slowed growth and below 0 cell loss.

SMILES | Growth Rate (HEK-293T; 6 h, replicate number 1) | Growth Rate (HEK-293T; 12 h, replicate number 1) | Growth Rate (HEK-293T; 18 h, replicate number 1) | Growth Rate (Fibroblast; 6 h, replicate number 2) | Growth Rate (Fibroblast; 12 h, replicate number 2) | Growth Rate (Fibroblast; 18 h, replicate number 1) | Growth Rate (Fibroblast; 18 h, replicate number 2) | Growth Rate (Fibroblast; 24 h, replicate number 2) | Growth Rate (U2OS; 0 h, replicate number 1) | Growth Rate (U2OS; 18 h, replicate number 1) | Growth Rate (HEK-293T; 12 h, replicate number 2) | Growth Rate (HEK-293T; 24 h, replicate number 1) | Growth Rate (HEK-293T; 24 h, replicate number 2) | Growth Rate (Fibroblast; 12 h, replicate number 1) | Growth Rate (HEK-293T; 6 h, replicate number 2) | Growth Rate (HEK-293T; 18 h, replicate number 2) | Growth Rate (U2OS; 24 h, replicate number 2) | Growth Rate (Fibroblast; 24 h, replicate number 1) | Growth Rate (U2OS; 6 h, replicate number 2) | Growth Rate (U2OS; 12 h, replicate number 2) | further results
CN(CC(=O)Nc1ccc(F)c(F)c1F)C(=O)c1ccc2c(c1)OCCO2 | 0.37 | 0.74 | 0.93 | 0.54 | 0.55 | 0.79 | 0.78 | 0.87 | -0.71 | 0.76 | – | – | – | – | – | – | – | – | – | – | Growth Rate (U2OS; 6 h, replicate number 1): 0.07; Growth Rate (U2OS; 12 h, replicate number 1): 0.45; Growth Rate (U2OS; 24 h, replicate number 1): 0.95
O=S(=O)(Nc1ccc(C(O)(C(F)(F)F)C(F)(F)F)cc1)c1cccs1 | 0.89 | – | 0.88 | 0.87 | – | 0.89 | 0.93 | 0.87 | -0.75 | 0.7 | 0.89 | 0.87 | 0.9 | 0.76 | – | – | – | – | – | – | Growth Rate (Fibroblast; 0 h, replicate number 2): 0.56; Growth Rate (U2OS; 0 h, replicate number 2): 0.65; Growth Rate (U2OS; 6 h, replicate number 1): 0.58; Growth Rate (U2OS; 12 h, replicate number 1): 0.46; Growth Rate (U2OS; 24 h, replicate number 1): 0.8
CNC(=O)c1c[nH]c2ccc(Nc3nccc(-c4ccccn4)n3)cc12 | 0.28 | 0.33 | 0.33 | 0.18 | 0.41 | – | 0.6 | 0.75 | 0.13 | 0.95 | 0.1 | 0.39 | 0.17 | 0.8 | 0.09 | 0.14 | 0.94 | – | – | – | Growth Rate (Fibroblast; 0 h, replicate number 1): -1
C/C=C1\C(=O)CC2C3CCC4=CC(=O)CC[C@]4(C)C3CC[C@]12C (stereo partly drawn) | 0.43 | 0.69 | 0.83 | 0.33 | 0.88 | 0.64 | 0.96 | 0.9 | 0.15 | 0.92 | 0.92 | 0.84 | – | 0.83 | 0.44 | – | – | 0.81 | – | – | Growth Rate (Fibroblast; 6 h, replicate number 1): -0.19; Growth Rate (U2OS; 6 h, replicate number 1): 0.52; Growth Rate (U2OS; 12 h, replicate number 1): 0.73
CCn1ccc(Nc2ncc3c(n2)-c2c(nn(C)c2-c2ccc(-c4cnn(C)c4)cc2Cl)CC3)n1 | -0.49 | -0.39 | -0.28 | – | 0.65 | 0.32 | 0.5 | 0.19 | -1 | 0.27 | -0.54 | -0.24 | -0.33 | 0.87 | -0.71 | -0.43 | -0.03 | 0.46 | 0.57 | 0.22 | Growth Rate (Fibroblast; 0 h, replicate number 1): -1; Growth Rate (Fibroblast; 6 h, replicate number 1): 0.64; Growth Rate (U2OS; 18 h, replicate number 2): 0.13; Growth Rate (U2OS; 24 h, replicate number 1): 0.21
C=CC(=O)Nc1cccc(C)c1Nc1ncc2cc(-c3c(Cl)c(OC)cc(OC)c3Cl)ccc2n1 | -0.39 | -0.35 | -0.32 | -0.2 | 0.44 | 0.03 | 0.44 | 0.33 | -0.45 | 0.32 | -0.45 | -0.21 | -0.26 | 0.12 | -0.56 | -0.41 | 0.4 | 0.05 | 0.31 | 0.5 | Growth Rate (Fibroblast; 6 h, replicate number 1): -0.64; Growth Rate (U2OS; 0 h, replicate number 2): 0.38; Growth Rate (U2OS; 6 h, replicate number 1): 0.45; Growth Rate (U2OS; 12 h, replicate number 1): 0.25; Growth Rate (U2OS; 18 h, replicate number 2): 0.42; Growth Rate (U2OS; 24 h, replicate number 1): 0.38
CN(C(=O)c1ccccc1)c1ccc2c(c1)nc(NC(=O)c1ccc(Br)s1)n2CCC(N)=O | 0.09 | 0.33 | 0.34 | – | – | – | – | – | -1 | 0.9 | 0.26 | 0.4 | 0.34 | – | 0.04 | 0.3 | 0.68 | 0.96 | 0.89 | 0.72 | Growth Rate (Fibroblast; 0 h, replicate number 1): -0.8; Growth Rate (Fibroblast; 0 h, replicate number 2): -0.39; Growth Rate (U2OS; 18 h, replicate number 2): 0.71
CN(C)CCCNc1ccnc(Nc2cccc(Cl)c2)n1 | -0.38 | -0.19 | -0.03 | 0 | 0.34 | 0.67 | 0.45 | 0.38 | -1 | – | -0.09 | 0.02 | 0.29 | 0.88 | – | 0.04 | 0.47 | 0.56 | 0.82 | 0.65 | Growth Rate (Fibroblast; 0 h, replicate number 1): -0.99; Growth Rate (Fibroblast; 0 h, replicate number 2): 0.25; Growth Rate (Fibroblast; 6 h, replicate number 1): 0.3; Growth Rate (U2OS; 6 h, replicate number 1): -0.98; Growth Rate (U2OS; 18 h, replicate number 2): 0.64
COC(=O)c1ccc2c(c1)NC(=O)/C2=C(\Nc1ccc(-c2nccn2C)cc1)c1ccccc1 | -0.53 | -0.37 | -0.26 | – | – | – | – | – | -1 | 0.46 | -0.51 | -0.09 | -0.27 | – | -0.73 | -0.37 | 0.46 | – | 0.77 | 0.61 | Growth Rate (Fibroblast; 0 h, replicate number 1): -1; Growth Rate (U2OS; 6 h, replicate number 1): 0.57; Growth Rate (U2OS; 12 h, replicate number 1): 0.53; Growth Rate (U2OS; 18 h, replicate number 2): 0.62; Growth Rate (U2OS; 24 h, replicate number 1): -0.6
Cc1cc(C2CCCNC2)ccc1Nc1ncc(Br)c(NCc2cccc3c2C(C)(C)C(=O)N3)n1 (stereo not drawn) | 0.39 | 0.08 | 0.07 | – | 0.81 | 0.61 | 0.49 | 0.32 | -0.95 | 0.88 | 0.09 | -0.01 | 0.13 | – | 0.05 | 0.12 | 0.37 | 0.34 | 0.86 | 0.61 | Growth Rate (U2OS; 18 h, replicate number 2): 0.46; Growth Rate (U2OS; 24 h, replicate number 1): 0.8
CN1CCN(C(=O)Cc2ccc(N/C(=C3\C(=O)Nc4cc(Cl)ccc43)c3ccccc3)cc2)CC1 | 0.26 | 0.71 | 0.84 | -0.1 | 0.01 | 0.44 | 0.21 | 0.28 | – | – | 0.92 | 0.8 | 0.73 | 0.24 | 0.83 | 0.82 | 0.58 | 0.48 | 0.9 | 0.86 | Growth Rate (Fibroblast; 0 h, replicate number 2): 0.06; Growth Rate (Fibroblast; 6 h, replicate number 1): 0.12; Growth Rate (U2OS; 18 h, replicate number 2): 0.7
CC(=O)N(CCN(C)C)c1ccc(N/C(=C2\C(=O)Nc3cc(Cl)ccc32)c2ccccc2)cn1 | -0.78 | -0.58 | -0.45 | -0.8 | -0.8 | -0.63 | -0.76 | -0.72 | – | 0.02 | -0.71 | -0.37 | -0.42 | -0.65 | -0.92 | -0.55 | -0.13 | -0.58 | 0.34 | 0.23 | Growth Rate (Fibroblast; 0 h, replicate number 2): -1; Growth Rate (Fibroblast; 6 h, replicate number 1): -0.62; Growth Rate (U2OS; 6 h, replicate number 1): -0.35; Growth Rate (U2OS; 12 h, replicate number 1): 0.03; Growth Rate (U2OS; 18 h, replicate number 2): 0.1; Growth Rate (U2OS; 24 h, replicate number 1): -0.14
COCCN1CCN(CCn2ccc(Nc3ncc4c(n3)-c3c(nn(C)c3-c3ccccc3)C[C@H]4C)n2)CC1 | -0.53 | -0.36 | -0.28 | 0.5 | 0.24 | 0.37 | 0.31 | 0.41 | – | 0.7 | -0.33 | -0.17 | -0.22 | 0.47 | -0.51 | -0.32 | 0.5 | 0.52 | 0.25 | -0.9 | Growth Rate (Fibroblast; 0 h, replicate number 2): 0.9; Growth Rate (Fibroblast; 6 h, replicate number 1): 0.35; Growth Rate (U2OS; 6 h, replicate number 1): 0.91; Growth Rate (U2OS; 12 h, replicate number 1): -0.73; Growth Rate (U2OS; 18 h, replicate number 2): -0.83; Growth Rate (U2OS; 24 h, replicate number 1): 0.85
